We go through one molecule from patent publication US20230149358A1, “COMBINATION CANCER THERAPY WITH PENTAAZA MACROCYCLIC RING COMPLEX AND HORMONE THERAPY AGENT” (Galera Labs, LLC, priority 2020, published 2023).

One experiment concerns MCF7-HTR cells. Description: Clonogenic cell survival, hydroxy-Tam-resistant MCF7-HTR cells. The settings on record: 5 μM GC4419 for 5 days. In kind it is cell-based, human. The method, then: (§1) Clonogenic cell survival assay. For the clonogenic survival analysis, exponentially growing cells were replated using appropriate dilutions, and clonogenic survival was evaluated after 14 days in regular growth medium. Cells were stained with crystal violet, and colonies of >50 cells were counted and utilized to calculate clonogenic survival^46.
(§2) To test parameters indicative of oxidative stress, a clonogenic assay with hydroxy-Tam and antioxidant treatments was performed. Cells were plated at a density of 50,000 cells per 60-mm dish and treated with 1 μM hydroxy-Tam (Sigma) and 5 μM GC4419 (Galera Therapeutics) for a total of 120 h. This protocol was repeated with a fresh medium change every 24 h for 5 days. On day 6, the cells were trypsinized, counted, and replated in control medium using appropriate dilutions, and clonogenic survival was evaluated.

Experiment [1] has as its system T47D-HTR cells. Description: Clonogenic cell survival, hydroxy-Tam-resistant T47D-HTR cells. The following applies: 5 μM GC4419 for 5 days. In kind it is cell-based, human. The method, then:
as §1, §2

Experiment [2] deals with T47D-HTR cells. Description: Ki-67 staining, T47D-HTR cells. In kind it is cell-based, human. The settings on record: 5 μM GC4419 and/or 1 μM 4-hydroxy-Tam for 5 days. An excerpt: With respect to FIG. 16a, the data from FIG. 7i, where MCF7-HTR cells were stained for Ki-67, as well as DAPI, were counted with ImageJ and quantified for average Ki-67 intensity as shown in the bar graph. With respect to FIGS. 16b and 16c, T47D and T47D-HTR cells were stained for Ki-67 as well as DAPI, and particles in the nucleus were counted with ImageJ and quantified for average Ki-67 intensity as shown in the bar graph. In FIGS. 16d and 16e, MCF7-HTR cells, and in FIGS. 16f and 16g, T47D-HTR cells, were treated with 5 μM GC4419 and/or 1 μM 4-hydroxy-Tam for 5 days, and then stained for Ki-67 as well as DAPI. Quantifications of average Ki-67 intensity are shown in the bar graphs. All experiments were done in triplicate. Error bars represent ±1 SEM. ***p<0.001. Representative images are shown.
Cells seeded on glass coverslips were fixed in 4% paraformaldehyde and then blocked with 1% BSA and 10% normal goat serum in 1×PBS. Cells were incubated with anti-Ki-67 (c-bioscience) antibody in 1×PBS followed by incubation with goat anti-rabbit IgG conjugated with Alexa Fluor 647 (Invitrogen) in 1×PBS with 5% goat serum. Cells were washed in 1×PBS, mounted, and imaged with a fluorescence microscope. Fluorescence images were captured using a laser scanning confocal microscope (Nikon A1R). The paired images in all the figures were collected at the same gain and offset settings. […]

For the next experiment, the system named is MCF7-MnSOD^K68Q cells. Description: Ki-67 staining, MCF7-MnSOD^K68Q cells. In kind it is cell-based, human. The following applies: 5 μM GC4419 and/or 1 μM 4-hydroxy-Tam for 5 days. The protocol:
(§3) MCF7-MnSOD^K68Q cells (in FIGS. 17a and 17b) and T47D-MnSOD^K68Q cells (in FIGS. 17c and 17d) were treated with 5 μM GC4419 and/or 1 μM 4-hydroxy-Tam for 5 days, and then stained for Ki-67 as well as DAPI. Quantifications of average Ki-67 intensity are shown in the bar graphs. In FIG. 17e, MCF7 and MCF7-HTR cells were implanted into both hind limbs of nude mice and tumor volumes were measured every 3 days for 6 weeks and the number of tumors that successfully implanted versus the total number of mice infected with MCF7 and MCF7-HTR as well as the average tumor weight and tumor size are shown. Representative images are shown. All experiments were done in triplicate. Error bars represent ±1 SEM. ***p<0.001.
(§4) Cells seeded on glass coverslips were fixed in 4% paraformaldehyde and then blocked with 1% BSA and 10% normal goat serum in 1×PBS. Cells were incubated with anti-Ki-67 (c-bioscience) antibody in 1×PBS followed by incubation with goat anti-rabbit IgG conjugated with Alexa Fluor 647 (Invitrogen) in 1×PBS with 5% goat serum. Cells were washed in 1×PBS, mounted, and imaged with a fluorescence microscope. Fluorescence images were captured using a laser scanning confocal microscope (Nikon A1R). The paired images in all the figures were collected at the same gain and offset settings. Post-collection processing was applied uniformly to all paired images.

The test system of another experiment is T47D-MnSOD^K68Q cells. Description: Ki-67 staining, T47D-MnSOD^K68Q cells. In kind it is cell-based, human. The following applies: 5 μM GC4419 and/or 1 μM 4-hydroxy-Tam for 5 days. The method, then: as §3, §4
A further experiment has as its system LNCaP-ENZR cells. The experiment in a line: Clonogenic cell survival, LNCaP-ENZR cells. In kind it is cell-based. The following applies: ENZ with GC4419 (20 μM) for 5 days. The protocol: (§5) In FIG. 21(a), clonogenic cell survival experiments were performed in LNCaP-ENZR (left two bars) and LNCaP-MnSOD^K68Q (right two bars) treated with ENZ, with or without GC4419 (20 μM) for 5 days. […] Tumor volumes were measured three times a week for 46 days. For each group n=10. Error bars ±1 SEM. All experiments done in triplicate. **p<0.01.
To address whether there is a link between MnSOD-K68-Ac and ENZR, two ENZ sensitive prostate tumor cell lines were used, LNCaP or 22RV1, which were cultured in 5 μM of ENZ for 3 weeks and then continuously grown at 10 μM, using an established method^91 to select for ENZR cells. […] Since K68-Ac alters the surface charge at the MnSOD tetramerization interface, we assessed the oligomerization state of MnSOD in LNCaP-ENZR cells.

For the next experiment, the system named is LNCaP-MnSOD^K68Q cells. Description: Clonogenic cell survival, LNCaP-MnSOD^K68Q cells. In kind it is cell-based. The following applies: ENZ with GC4419 (20 μM) for 5 days. The method, then: as §5
The test system of experiment [3] is LNCaP-MnSOD^K68Q xenografts. Description: LNCaP-MnSOD^K68Q hindlimb xenograft growth in nude mice. In kind it is in vivo. The following applies: male nude mice; GC4419 10 mg/kg once per week, ENZ 25 mg/kg/day; 46 days. The method, then: as §5
Thus, it was surmised that restoring SOD activity, using the pentaaza macrocyclic ring complex GC4419, an agent that chemically detoxifies superoxide, would reverse/convert the ENZR to a sensitive phenotype. […] The dose and pharmacokinetics for GC4419 is based on data for murine models^92-93.

The subject of experiment [4] is Sirt3^−/−-MT-SIRT3^DN tumor cells. Description: Mammary allograft tumor growth (bioluminescence), Sirt3^−/−-MT-SIRT3^DN. In kind it is in vivo. The following applies: Sirt3^−/−-MT-SIRT3^DN allografts, nude mice, IP every other day for five weeks. The protocol: (§6) Mice were subsequently injected with luciferin potassium (120 mg/kg) every week and signal intensity will be quantified. Error bars represent one SD from the mean.
(§7) These cell lines were subsequently infected with and selected to express either a SIRT3 wild-type (Sirt3^−/−-MT-SIRT3^WT) or deacetylation null (Sirt3^−/−-MT-SIRT3^DN) gene and a lenti-luciferase to assess tumor growth by bioluminescence. Allograft tumor mice were split into four groups: (1) control, untreated Sirt3^−/−-MT-SIRT3^DN; (2) GC4419 treated Sirt3^−/−-MT-SIRT3^DN; (3) control, untreated Sirt3^−/−-MT-SIRT3^WT; and (4) GC4419 treated Sirt3^−/−-MT-SIRT3^WT.

The subject of experiment [5] is Sirt3^−/−-MT-SIRT3^WT tumor cells. Description: Mammary allograft tumor growth (bioluminescence), Sirt3^−/−-MT-SIRT3^WT. In kind it is in vivo. The settings on record: Sirt3^−/−-MT-SIRT3^WT allografts, nude mice, IP. The method, then: as §6, §7
Experiment [6] concerns Tam resistant as well as loss of Sirt3 tumor cell lines. Description: In vitro Tam resistance, Tam resistant and loss of Sirt3 tumor cell lines. In kind it is cell-based. The following applies: data not shown.
Experiment [7] concerns head-and-neck cancer patients. The following applies: head-and-neck cancer patients undergoing chemoradiation therapy; cited from earlier work.
The subject of another experiment is mice lacking Sirt3. The following applies: IP 2 mg/kg, 30 minutes before IR; cited from earlier work.

Entries after “also recorded” stand apart in the source; their conditions may differ.

In the case of `[Cl][Mn][Cl].c1cc2nc(c1)CN[C@H]1CCCC[C@@H]1NCCN[C@H]1CCCC[C@@H]1NC2` [GC4419], the “sensitivity to hydroxy-Tam (clonogenic cell survival)” value with MCF7-HTR cells and in the experiment with T47D-HTR cells [1] was “became sensitive to hydroxy-Tam” throughout. Moreover, the values for the Ki-67 staining entry with T47D-HTR cells [2], in the experiment with MCF7-MnSOD^K68Q cells and in the experiment on T47D-MnSOD^K68Q cells were “exhibited decreased Ki-67 IHC staining; also recorded: decreased Ki-67 levels”, “reversed the increase in Ki-67 IHC staining; also recorded: decreased Ki-67 levels” and “reversed the increase in Ki-67 IHC staining; also recorded: decreased Ki-67 levels”, respectively. In the experiment on LNCaP-ENZR cells, the “tumor cell survival in the presence of ENZ (clonogenic)” value is “significant decrease in tumor cell survival in the presence of ENZ; also recorded: reversed the ENZR”. For the same molecule, the “ENZ resistance phenotype (clonogenic cell survival)” value in the experiment on LNCaP-MnSOD^K68Q cells is given as “converted to a sensitive phenotype; also recorded: reversed the ENZR”. Moreover, in experiment [3], the “xenograft growth (tumor volume)” value was “significant inhibition of xenograft growth”. For the same molecule, the allograft tumor growth entry in experiment [4] was “significant decrease in tumor growth; also recorded: tumor growth is inhibited”; in experiment [5] it was “no change in tumor growth was observed”. Besides, the “Tam resistance in vitro” value in [6] is given as “reverses Tam resistance”. Besides, in [7], the oral mucositis result is “reduce oral mucositis”. Further, in the experiment with mice lacking Sirt3, the liver damage result was “attenuated liver damage”.
